Laboratory results reported in publication PMC5755735, “Discovery of indolylpiperazinylpyrimidines with dual-target profiles at adenosine A2A and dopamine D2 receptors for Parkinson's disease treatment” (PLoS ONE, 2018).

Assays:
[1] = test system: Salmonella strains TA98 and TA100; experiment: Ames mutagenicity test; assay type: cell-based, Salmonella typhimurium; conditions: 10 μM and 100 μM; TA98 and TA100, +S9 and –S9
Description: In the toxicity studies, in vitro assays for mutagenicity and cytotoxicity were performed on compounds 5 and 6. These compounds were investigated for their mutagenic potential through the Ames assay. Two Salmonella strains TA98 and TA100 with pre-existing mutations (His^-) were selected. Both strains are unable to synthesize histidine (one of the growth requirements for these strains) and therefore cannot form colonies on the agar plate.
Together with the compounds, the Salmonella strains were incubated in the presence (+S9) and absence (–S9) of a metabolizing system “S9 mix” consisting of 9000 g supernatant fraction of rat liver microsomes, nicotinamide adenine dinucleotide phosphate (NADP) and cofactors. Exogenous “S9 mix” was included due to the lack of CYP metabolizing enzymes in Salmonella typhimurium. In the assay, agar plates +S9 and–S9 were used to detect pro-mutagens for cases where the native chemical was not mutagenic but its metabolites were mutagens, and direct-acting mutagens, respectively. […]
In vitro mutagenicity was performed using a modified Ames Test protocol according to manufacturer’s instructions (MolTox). […] The cultures were then measured for absorbance with a UV spectrophotometer at 660 nm and to be used at a density of approximately 1.0 to 1.2 absorbance units. […] Images of colonies were captured and counted with the aid of ImageJ software.

[2] = test system: TAMH (TGF-α overexpressing mouse hepatocytes); experiment: cell viability assay in TAMH hepatocytes (Cell-Titer-Glo); assay type: cell-based; conditions: concentrations less than 30 μM, 24 h
Description: Besides the mutagenicity study, compounds 5 and 6 were also subjected to cell viability assays using transforming growth factor-alpha mouse hepatocyte (TAMH) and HL-1 cardiomyocyte to assess the cytotoxic potential. TAMH lines were treated with compounds 5 and 6 in eight different concentrations (100 μM, 33.3 μM, 11.1 μM, 3.7 μM, 1.23 μM, 0.41 μM, 0.13 μM, 0.045 μM), and the percentage of viable cells was plotted against the logarithm of ligand concentration (S10B and S10C Fig). […] Acetaminophen, a drug with direct hepatotoxic potential, was used as the positive control in this assay (S10A Fig). […] Doxorubicin, a chemotherapeutic agent known to cause dose-dependent cardiotoxicity, was used as the positive control in this assay (S10D Fig).
Immortalised hepatocyte and cardiomyocyte cell lines, TAMH (TGF-α overexpressing mouse hepatocytes) and HL-1 were used respectively as models for in vitro toxicity studies. Both cell lines were cultured in accordance with previously described methods. […] The cell-reagent mixture was transferred to a solid white flat-bottom 96-well plate (Greiner 655207) for luminescence reading. Luminescence was recorded with an integration time of 0.25 second with a Tecam Infinite® M200 Microplate reader. Data are expressed as percentage of viable cells compared to DMSO-treated controls. […]

| SMILES | mutagenicity (number of His+ revertants) [1] | cytotoxicity (cell viability) [2] |
| --- | --- | --- |
| Cc1cc(C)nc(N2CCN(C(=O)Cc3c(C)[nH]c4ccccc34)CC2)n1 [Compound 6, 1‐[4‐(4,6‐Dimethylpyrimidin‐2‐yl)piperazin‐1‐yl]‐2‐(2‐methyl‐1H‐indol‐3‐yl)ethan‐1‐one] | no significant mutagenicity | non-cytotoxic |
| Cc1cc(C)nc(N2CCN(C(=O)c3c[nH]c4ccccc34)CC2)n1 [Compound 5, 3‐[4‐(4,6‐Dimethylpyrimidin‐2‐yl)piperazine‐1‐carbonyl]‐1H‐indole] | no significant mutagenicity | non-cytotoxic |
